The record followed here is article PMC4563558, “Discovery of a series of novel phenylpiperazine derivatives as EGFR TK inhibitors” (Scientific Reports, 2015).

The subject of series [1] is Lung cells. The series is described as follows: MTT assay, human normal lung cell line. Type of series: cell-based. Particulars: read-out: IC50 ± SD, Lung cells. The method, then: (§1) To test the antiproliferative activities of the synthesized compounds (see supplementary Scheme S1 and S2), the target compounds were evaluated in vitro antiproliferation assays against three human cancer cell lines (MCF-7, HeLa and A549) and one human normal lung cell line.
(§2) The in vitro anticancer activities of the prepared compounds against MCF-7, HeLa and A549 cell lines were evaluated as described in the literature[23] with some modifications. Target tumor cells were grown to log phase in DMEM medium supplemented with 10% fetal bovine serum. After reaching a dilution of 1 × 10^5 cells mL^−1 with the medium, 100 μL of the obtained cell suspension was added to each well of 96-well culture plates. Subsequently, incubation was performed at 37 °C in 5% CO2 atmosphere for 48 h before the cytotoxicity assessment. Tested samples at preset concentrations were added to 6 wells with Erlotinib being employed as a positive reference. After 72 h exposure period, 25 μL of PBS containing 2.5 mg mL^−1 of MTT was added to each well. After 4 h, the medium was replaced by 150 μL DMSO to dissolve the purple formazan crystals produced. The absorbance at 570 nm of each well was measured with an ELISA plate reader. The data represented the mean of three independent experiments in triplicate and were expressed as means ± SD. The IC50 value was defined as the concentration at which 50% of the cells could survive.

For series [2], the target named is T1, VEGFR2 (Homo sapiens, UniProt P35968).
T1 construct: purchased Bio-Swamp
T1 sequence (P35968 20-1356, species assumed): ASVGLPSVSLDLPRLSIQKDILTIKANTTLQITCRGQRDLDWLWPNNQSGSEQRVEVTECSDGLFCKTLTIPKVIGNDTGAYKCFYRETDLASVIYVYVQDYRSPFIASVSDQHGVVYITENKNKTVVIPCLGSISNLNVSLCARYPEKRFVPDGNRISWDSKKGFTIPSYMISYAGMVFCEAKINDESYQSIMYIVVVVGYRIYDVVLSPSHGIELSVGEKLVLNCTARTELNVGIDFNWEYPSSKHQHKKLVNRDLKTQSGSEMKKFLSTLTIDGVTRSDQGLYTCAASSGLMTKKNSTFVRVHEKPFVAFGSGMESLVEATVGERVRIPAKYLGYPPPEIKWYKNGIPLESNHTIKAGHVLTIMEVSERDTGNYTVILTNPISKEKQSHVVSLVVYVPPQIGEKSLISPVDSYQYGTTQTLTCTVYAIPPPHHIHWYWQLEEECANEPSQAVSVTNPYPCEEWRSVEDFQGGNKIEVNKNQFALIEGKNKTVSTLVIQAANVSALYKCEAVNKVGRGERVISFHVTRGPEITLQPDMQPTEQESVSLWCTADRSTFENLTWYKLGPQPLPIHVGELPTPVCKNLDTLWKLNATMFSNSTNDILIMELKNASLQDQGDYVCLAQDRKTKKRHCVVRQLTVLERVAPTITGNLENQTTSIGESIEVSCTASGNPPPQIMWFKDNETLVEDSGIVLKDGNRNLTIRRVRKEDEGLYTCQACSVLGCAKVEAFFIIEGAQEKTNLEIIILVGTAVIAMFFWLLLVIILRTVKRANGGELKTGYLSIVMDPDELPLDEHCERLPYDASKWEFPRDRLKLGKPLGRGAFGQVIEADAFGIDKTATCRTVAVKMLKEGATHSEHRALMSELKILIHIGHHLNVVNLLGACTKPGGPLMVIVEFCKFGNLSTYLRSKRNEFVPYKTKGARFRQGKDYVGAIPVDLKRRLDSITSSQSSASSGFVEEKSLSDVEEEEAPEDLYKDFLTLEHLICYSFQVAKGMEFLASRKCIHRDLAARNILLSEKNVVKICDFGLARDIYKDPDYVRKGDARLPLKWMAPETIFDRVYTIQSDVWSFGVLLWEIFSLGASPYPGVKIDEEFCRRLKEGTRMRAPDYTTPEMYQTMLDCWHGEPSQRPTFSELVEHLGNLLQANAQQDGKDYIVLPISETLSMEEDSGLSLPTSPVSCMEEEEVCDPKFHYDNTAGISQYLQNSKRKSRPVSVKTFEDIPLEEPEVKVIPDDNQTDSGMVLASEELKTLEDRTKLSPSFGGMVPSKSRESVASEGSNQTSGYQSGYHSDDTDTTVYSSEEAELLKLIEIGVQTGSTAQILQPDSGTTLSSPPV
The series is described as follows: Kinase selectivity assay (kit), VEGFR2. Type of series: biochemical. Particulars: read-out: Inhibition of VEGFR2 IC50. The method, then: (§3) To validate whether the above anti-proliferative effect was produced by interaction of EGFR protein and the synthesized compounds, the synthesized compounds were evaluated for their abilities to inhibit the activity of four protein kinases relevant to cancer: EGFR, VEGFR2, bFGF, PDGFR. […] Additionally, the activity data inferred that the IC50 values of these compounds shared a similar tendency with their relevant IC50 values of anti-proliferative assay. […] Therefore, we could conclude that the synthesized inhibitors can inhibit the function of EGFR and the anti-proliferative effect was produced partly by interaction of EGFR protein and the compounds.
(§4) The EGFR, VEGFR2, bFGF and PDGFR Kinase Assay Kit were purchased from Bio-Swamp. The experiments were performed according to the manufacturer’s instructions.

Series [3] in a line: Acute oral toxicity, bodyweights. The class given is in vivo. The conditions noted are these: mice; for Bodyweights 0 day ± SD: day 0; for Bodyweights 7 days ± SD: day 7. The method, then:
Before the acute toxicity experiment, mice were stopped being served food but water was kept for 3 h. The test substances were dissolved in maize germ oil[24]. The preliminary experiment was performed as follows: Four dose levels, 100, 500, 2000, and 5000 mg/kg body weight and three mice for each level were used. We observed the death and evident toxicity in 7 days to determine the general concentration range. Then the administration doses were graded with geometric progression for ease of the calculation of LD50. Mice were randomly divided into groups (10 mice/group). […] The control groups received maize germ oil only. After the administration, food was withheld for 2 h.

The nature of series [4]: in vitro. Type of series: cell-based. The conditions noted are these: mouse. As for the experimental part: The cytotoxic activity in vitro was measured against mouse fibroblast NIH-3T3 cells using the MTT assay. Cells were cultured in a 96-well plate at a density of 5 × 10^5 cells and different concentrations of compounds were respectively added to each well. The incubation was permitted at 37 °C, 5% CO2 atmosphere for 24 h before the cytotoxicity assessments. 20 μL MTT reagent (4 mg/mL) was added per well 4 h before the end of the incubation. Four hours later, the plate was centrifuged at 1200 rcf for 5 min and the supernatants were removed, each well was added with 200 μL DMSO. The absorbance was measured at a wavelength of 490 nm (OD 490 nm) on an ELISA microplate reader. Three replicate wells were used for each concentration and each assay was measured three times, after which the average of IC50 was calculated.

The target of series [5] is bFGF. The series is described as follows: Kinase selectivity assay (kit), bFGF. Particulars: read-out: Inhibition of bFGF IC50. Type of series: biochemical. The method, then:
as §3, §4

The test system of series [6] is HeLa. The series is described as follows: MTT antiproliferation assay, HeLa. The class given is cell-based. Particulars: Homo sapiens, 72 h exposure, read-out: IC50 ± SD, HeLa. The method, then:
as §1, §2

Series [7] relates to MCF-7, HeLa and A549 cell lines. The series is described as follows: Anticancer activities discussed in text (cell line not specified). Type of series: cell-based, human. The conditions noted are these: comparison within series and with positive control. As for the experimental part:
According to the data presented in Table 1, it could be concluded that the activity of the tested compounds may be correlated to the variation and modifications of structure.
as §2

Series [8] relates to MCF-7. The series is described as follows: MTT antiproliferation assay, MCF-7. Type of series: cell-based. Particulars: Homo sapiens, MCF7, 72 h exposure, read-out: IC50 ± SD, MCF-7. The method, then:
as §1, §2
On the technique in general: Formazan colour is commonly taken as a measure of viable cells.

In series [9] the test system is A549. The experiment in a line: MTT antiproliferation assay, A549. The class given is cell-based. The conditions noted are these: Homo sapiens, 72 h exposure, read-out: IC50 ± SD, A549. The method, then: as §1, §2
The test system of series [10] is Erythrocytes. The experiment in a line: Hemolysis test. The class given is cell-based. Particulars: human erythrocytes, 3 h incubation. As for the experimental part: Hemolytic activity was assayed using fresh capillary human blood. Erythrocytes were collected by centrifuging the blood three times in chilled phosphate buffered saline (PBS at 4 °C) at 1000 × g for 10 min. The final pellet was resuspended in PBS to give a 2% w/v solution. Using a microtitre plate, 100 μL of the erythrocyte solution was added to dextran, PLL, stearyl-PLL or stearyl-PLL+LDL (1–1000/μg/mL) in a volume of […]. Samples were then incubated for 3 h and the microtitre plate was centrifuged then at 1000 × g for 10 min and the supernatants (100 μL) transferred into a new microtitre plate. Hemoglobin release was determined spectrophotometrically using a microtitre plate reader (absorbance at 550 nm). Results were expressed as the amount of released hemoglobin induced by the compounds as a percentage of the total. Hemolysis test was tested according to the guide of biological evaluation of medical device (SFDA, China).

Series [11] addresses PDGFR. The series is described as follows: Kinase selectivity assay (kit), PDGFR. Type of series: biochemical. Particulars: read-out: Inhibition of PDGFR IC50. The method, then: as §3, §4
Series [12] deals with A549 cells. The series is described as follows: Tumor volume in nude mice inoculated with A549 cells. The class given is in vivo. Particulars: for Test/Control (tumor volume): 40 mg/kg/2 days. The method, then:
To further evaluate the antitumor effect of compound 3p in vivo, we performed an animal study. Mice were inoculated subcutaneously with A549 cells (5.0 × 10^6) on their shoulders. […]. […] […].
Male BALB/c nude mice, 35–40 days old and weighing 18–22 g, were supplied by Shanghai Laboratory Animal Limited Company. The mice were raised in air-conditioned rooms under controlled lighting (12 h lighting/day) and were fed with standard laboratory food and water ad libitum. Before injection into the mice, the lung cancer cells (A549) were harvested by trypsinization and washed three times with cold serum-free medium and then injected in a total volume of 0.1 mL using a 1-mL latex-free syringe (BD) within 30 min of harvest. Mice were inoculated subcutaneously with A549 cells (5.0 × 10^6) on their shoulders. When the tumor had increased to 100 mm^3 , the mice were equally randomized into 4 groups (with 6 mice/group): saline tumor control group; compound 3p 20 mg/kg/2 days group; compound 3p 40 mg/kg/2 days group; […]. The control group received 0.9% normal saline. Tumor size was measured once every 2 days in two per-pendicular dimensions with Vernier calipers and converted to tumor volume (TV) using the formula: (ab^2)/2, where a and b refer to the longer and shorter dimensions, respectively. The body weight of the animals was measured twice a week at the same time as the tumor dimension measurement and the mortality was monitored daily. After the treatments, all mice were killed and weighed simultaneously, and then tumor was segregated and weighed.

For series [13], the target named is T2, EGFR (Homo sapiens, UniProt P00533).
T2 construct: purchased Bio-Swamp
T2 sequence (P00533 25-1210): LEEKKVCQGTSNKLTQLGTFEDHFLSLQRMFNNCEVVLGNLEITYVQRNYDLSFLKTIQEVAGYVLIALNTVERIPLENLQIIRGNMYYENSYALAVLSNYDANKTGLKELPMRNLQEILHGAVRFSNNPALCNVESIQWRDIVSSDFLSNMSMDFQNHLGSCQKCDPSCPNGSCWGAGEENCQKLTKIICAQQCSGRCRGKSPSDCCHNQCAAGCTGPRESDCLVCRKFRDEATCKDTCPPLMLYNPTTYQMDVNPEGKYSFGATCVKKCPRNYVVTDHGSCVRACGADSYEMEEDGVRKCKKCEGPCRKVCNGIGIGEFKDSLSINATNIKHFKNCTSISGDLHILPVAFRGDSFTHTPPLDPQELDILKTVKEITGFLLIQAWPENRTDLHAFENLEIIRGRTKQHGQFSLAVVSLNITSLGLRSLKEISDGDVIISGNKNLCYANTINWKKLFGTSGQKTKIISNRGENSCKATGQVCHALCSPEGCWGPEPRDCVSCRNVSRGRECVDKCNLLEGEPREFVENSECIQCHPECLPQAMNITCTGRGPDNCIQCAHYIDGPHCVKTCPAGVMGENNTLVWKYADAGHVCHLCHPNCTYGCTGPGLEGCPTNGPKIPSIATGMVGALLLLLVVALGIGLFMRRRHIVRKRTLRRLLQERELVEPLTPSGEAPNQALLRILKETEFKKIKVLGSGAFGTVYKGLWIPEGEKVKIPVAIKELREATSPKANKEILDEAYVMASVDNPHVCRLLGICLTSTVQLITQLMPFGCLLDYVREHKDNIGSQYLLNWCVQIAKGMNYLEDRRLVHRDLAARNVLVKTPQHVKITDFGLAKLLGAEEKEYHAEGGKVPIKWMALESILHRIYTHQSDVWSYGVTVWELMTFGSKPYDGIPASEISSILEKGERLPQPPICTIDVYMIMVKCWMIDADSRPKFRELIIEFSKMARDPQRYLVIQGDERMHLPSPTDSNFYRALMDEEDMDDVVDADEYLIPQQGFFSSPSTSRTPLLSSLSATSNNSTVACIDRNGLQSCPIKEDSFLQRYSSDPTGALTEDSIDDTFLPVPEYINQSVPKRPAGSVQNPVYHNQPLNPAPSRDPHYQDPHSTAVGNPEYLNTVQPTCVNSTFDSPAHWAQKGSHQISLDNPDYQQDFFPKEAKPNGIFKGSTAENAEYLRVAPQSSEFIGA
The experiment in a line: Kinase selectivity assay (kit), EGFR. The class given is biochemical. Particulars: read-out: Inhibition of EGFR IC50. The method, then: as §4

On to `COc1cc(OC)nc(NC(=O)CN2CCN(c3ccc(Cl)c(Cl)c3)CC2)n1` [3p, 2-(4-(3,4-dichlorophenyl)piperazin-1-yl)-N-(4,6-dimethoxypyrimidin-2-yl)acetamide], for which the IC50 in [1] was 189 ± 3.82 µM; in series [2], 2.15 ± 0.06 µM; in [5], 27.1 ± 3.17 µM; in series [6], 0.08 ± 0.0002 µM; in series [8], 0.22 ± 0.001 µM; in series [9], 0.05 ± 0.0003 µM. Also, the IC50 in series [11] worked out at 17.3 ± 0.95 µM; in [13], 0.02 ± 0.003 µM. In series [3], the “Bodyweights 0 day ± SD” value worked out at 22.12 ± 1.13 g. Also, the “Bodyweights 7 days ± SD” value in series [3] was determined as 27.33 ± 1.08 g. The molecule also had a half-maximal inhibitory concentration (IC50) at 24 h in series [4] of 239 ± 4.03 µM. Moreover, the “Anticancer / antitumor activity (in words)” value in [7] is given as “most potent anticancer activities”. Further, the “Hemolysis LC30 (lytic concentration 30%)” value in [10] was more than 10000 µg/mL. Moreover, the Weight of tumor result in [12] (40 mg/kg, day 14) is on record as “significantly reduced”. For the same molecule, the “Test/Control (tumor volume)” value was determined as 42.79% in series [12] (day 4); 49.61% in [12] (day 6); 50.79% in series [12] (day 8); 60.00% in series [12] (day 10); 61.22% in [12] (day 12). Moreover, in series [12] (14-day treatment, nude mice), the “Effect on mice body weight” value is “did not observe significant growth inhibition of mice body weight”. For the same molecule, in series [12] (mouse, in vivo), the “Mortality during the treatment” value is given as “none of the mice died”.
Turning to `COc1cc(OC)nc(NC(=O)CN2CCN(c3ccccc3OC)CC2)n1` [3e, N-(4,6-Dimethoxypyrimidin-2-yl)-2-(4-(2-methoxyphenyl)piperazin-1-yl)acetamide], the half-inhibitory concentration (IC50) in [1] stood at 189.3 ± 1.78 µM; in series [2], 5.33 ± 0.05 µM; in [5] it was 11.5 ± 0.89 µM; in series [6], 1.55 ± 0.006 µM; in series [8] it was 2.57 ± 0.02 µM; in series [9], 1.97 ± 0.001 µM. The results for the IC50 in series [11] and in series [13] were 10 ± 1.17 µM and 1.01 ± 0.004 µM, respectively. In addition, the “Bodyweights 0 day ± SD” value in [3] amounted to 21.11 ± 1.34 g. In addition, the “Bodyweights 7 days ± SD” value in series [3] worked out at 25.34 ± 1.15 g. The IC50 at 24 h in [4] came out at 173 ± 5.31 µM. Further, the “Anticancer / antitumor activity (in words)” value in series [7] is recorded as “better anticancer activities compared to the positive control”. Also, in series [10], the “Hemolysis LC30 (lytic concentration 30%)” value is more than 10000 µg/mL.

The IC50 is the concentration that inhibits the measured activity by half.
